Test results reported in patent US9988680B2, “Non-natural nucleosides as theranostic agents” (Case Western Reserve University, priority 2011, dated 2018).

Tests used:
[1] = system: MOLT4 cells; assay: In situ click reaction with AlexaFluor488-azide, flow cytometry, MOLT4; format: cell-based; settings: MOLT4, 10 μM, 2 days
Protocol: (§1) In situ “click” reactions were performed using cells harvested after 2 days of treatment with DMSO, 3-Eth-5-NIdR (10, 40, or 100 μg mL^−1), 5-NIdR (100 μg mL^−1) or 5-ethynyl-2′-deoxyuridine (EdU) (10 μM). All cells were fixed with cold methanol. Under minimal lighting, cells were treated with 0.3 mL of saponin-based permeabilization and wash buffer for 45 min at 37° C. Click reactions were initiated by adding the click-iT reaction cocktail according to the instructions of the manufacturer (Invitrogen) followed by incubation at 37° C. for 90 min. Cells were then washed two times with saponin-based permeabilization and wash buffer. Cell pellets were dislodged using 0.5 mL solution of 10 μg mL^−1 PI and RNAase A in saponin-based permeabilization and wash buffer and then incubated for at least 15 min prior to flow cytometry analysis.
MOLT4 cells were treated with DMSO, EdU (a “clickable” thymidine analogue), 5-NIdR, and 3-Eth-5-NIdR for 2 days and then washed with PBS to remove any nucleoside and/or nucleotide not incorporated into DNA. After fixation and permeabilization, the cells were treated with AlexaFluor488-azide and Cu(I) catalyst to commence “clicking” of any incorporated nonnatural nucleotide. Dual parameter flow cytometry applying PI staining coupled with detection of the AlexaFluor488 fluorophore was used to detect the “clicked” non-natural nucleotide in cellular DNA. […] This high amount of “clicked” DNA reflects transport of EdU into the cell, conversion to the corresponding nucleoside triphosphate, and incorporation into the DNA of replicating cells. MOLT4 cells treated with 10 μg mL^−1 3-Eth-5-NIdR also show appreciable levels of AlexaFluor488 stained DNA (2.8%) after 2 days of treatment. Furthermore, the amount of “clicked” DNA is dosedependent as treatment with 40 μg mL^−1 Eth-5-NIdR yields a […] increase in AlexaFluor488 staining (6.5%). Identical experiments were performed using the Loucy cell line that lacks TdT and thus is less sensitive to the cytotoxic effects of the non-natural nucleoside (vide inf ra). […] Treatment with 40 μg mL^−1 of 3-Eth-5-NIdR produces low levels of “clicked” DNA (0.02%). […] Once incorporated into DNA, the non-natural nucleotide inhibits cellular DNA replication and induces apoptosis. Finally, it should be emphasized that low levels (<0.5%) of AlexaFluor488 staining are detected in cells treated with 100 μg mL^−1 5-NIdR.

[2] = system: Loucy cells; assay: In situ click reaction with AlexaFluor488-azide, flow cytometry, Loucy; format: cell-based; settings: 10 μM, 2 days
Protocol: as §1
MOLT4 cells were treated with DMSO, EdU (a “clickable” thymidine analogue), 5-NIdR, and 3-Eth-5-NIdR for 2 days and then washed with PBS to remove any nucleoside and/or nucleotide not incorporated into DNA. After fixation and permeabilization, the cells were treated with AlexaFluor488-azide and Cu(I) catalyst to commence “clicking” of any incorporated nonnatural nucleotide. […] Finally, it should be emphasized that low levels (<0.5%) of AlexaFluor488 staining are detected in cells treated with 100 μg mL^−1 5-NIdR.

[3] = target: terminal deoxynucleotidyl transferase (TdT) (Bos taurus, UniProt P06526); assay: Incorporation of natural and non-natural nucleotides by TdT (polymerization assay, Michaelis-Menten kinetics); format: biochemical; settings: incorporation by TdT; 6 units TdT, 1.5 μM single-stranded DNA substrate
Protocol: All enzymatic assays were performed as previously described. […] Reactions were quenched with 200 Mm EDTA at variable times (5-600 s) and analyzed using denaturing gel electrophoresis. Time courses in product formation were fitted using eq 1: Y=mt+b(1) (1)
where y is the amount of product, m is the rate of the reaction, t is time, and b is the Y-intercept. Km and Vmax values were determined by fits of the data points to the Michaelis-Menten equation: […]
where Vmax is the maximal rate of nucleotide incorporation, Km is the Michaelis constant for dNTP, and [dNTP] is the concentration of nucleotide substrate. The IC50 value for 3-Eth-5-NITP was obtained using a nonlinear regression curve fit of the data to eq 3:
The biological function of TdT is to expand immunological diversity by randomly incorporating dNTPs into single-stranded DNA during V(D)J recombination. […] TdT also utilizes nucleotide analogues including 2′,3′-dideoxynucleotides, dinucleoside 5′,5′-tetraphosphates, and intrinsically fluorescent nucleotide analogues. In this report, we tested if TdT also incorporates indolyl-2′-deoxyribose-5′-triphosphates that bear non-natural moieties such as ethynyl and nitro groups at the 3- and 5-position, respectively, of the indole base. […] Aliquots of the reaction were quenched with EDTA at variable time points, and the polymerization reactions were then subjected to denaturing polyacrylamide gel electrophoresis to separate extended primers from unreacted substrate.
Time courses in product formation were generated using pseudo-first order reaction conditions in which 6 units of TdT were incubated with 1.5 μM DNA substrate and mixed with variable concentrations of non-natural nucleotide (0.05-50 μM). Each time course was fit to an equation for a straight line to define the rate of nucleotide incorporation (data not shown).

terminal deoxynucleotidyl transferase (TdT), sequence (P06526 whole entry): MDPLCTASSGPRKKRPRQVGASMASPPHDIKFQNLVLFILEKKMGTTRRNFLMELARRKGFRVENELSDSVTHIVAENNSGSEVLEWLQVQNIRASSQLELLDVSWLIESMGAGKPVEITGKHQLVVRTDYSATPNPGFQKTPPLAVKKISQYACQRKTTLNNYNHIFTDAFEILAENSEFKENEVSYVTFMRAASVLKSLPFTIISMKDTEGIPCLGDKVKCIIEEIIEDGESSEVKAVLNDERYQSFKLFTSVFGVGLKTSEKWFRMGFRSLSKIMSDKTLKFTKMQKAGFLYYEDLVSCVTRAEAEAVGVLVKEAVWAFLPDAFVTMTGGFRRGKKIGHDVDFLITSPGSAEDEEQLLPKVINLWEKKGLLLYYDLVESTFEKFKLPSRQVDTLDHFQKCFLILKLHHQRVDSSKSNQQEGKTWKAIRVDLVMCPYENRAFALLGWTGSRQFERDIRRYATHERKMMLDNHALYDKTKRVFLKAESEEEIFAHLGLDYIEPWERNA

Row | Km [3] | Vmax [3] | Compound | AlexaFluor488 stained (clicked) DNA [1] | AlexaFluor488 staining (clicked DNA) [2]
1 |  |  | C#Cc1cn([C@H]2C[C@H](O)[C@@H](CO)O2)c(=O)[nH]c1=O [EdU, 5-ethynyl-2′-deoxyuridine, reference compound] | 36.1% | 59.2%
2 | 1.5 ± 0.4 µM | 3.3 ± 0.3 nM/s | Nc1ncnc2c1ncn2[C@H]1C[C@H](O)[C@@H](COP(=O)(O)OP(=O)(O)OP(=O)(O)O)O1 [dATP] |  | 
3 | 8 ± 0.9 µM | 29.2 ± 1.1 nM/s | Nc1nc2c(ncn2[C@H]2C[C@H](O)[C@@H](COP(=O)(O)OP(=O)(O)OP(=O)(O)O)O2)c(=O)[nH]1 [dGTP] |  | 
